According to patent US12558442B2, “Biological fluid treatment systems” (priority 2019, dated 2026):

Tested on: Klebsiella pneumoniae
Assay: Photochemical inactivation of K. pneumoniae in plasma or platelets in PAS with amotosalen and UVA LED illumination
Type: cell-based
Conditions: 150 μM amotosalen nominal, triplicate

## Cc1oc2c(C)c3oc(=O)cc(C)c3cc2c1COCCN [S-59, 3-(2-aminoethoxymethyl)-2,5,9-trimethylfuro[3,2-g]chromen-7-one]
plasma, INTERCEPT plasma set, 6.4 J/cm^2, UVA LEDs 346-349 nm
  Log Inactivation: 6.3 ± 0.3 log
plasma, INTERCEPT plasma set, 6.4 J/cm^2, UVA LEDs 346-349 nm, listed as amotosalen
  Log Inactivation: 6.3±0.3 log
platelets/PAS, LV set, 3.9 J/cm^2, UVA LEDs 346-349 nm
  Log Inactivation: 7.2 ± 0.2 log
platelets/PAS, LV set, 3.9 J/cm^2, UVA LEDs 346-349 nm, listed as amotosalen
  Log Inactivation: 7.2±0.2 log
